Reference: paper PMC3884839, “Pharmacokinetics and pharmacodynamics utilizing unbound target tissue exposure as part of a disposition-based rationale for lead optimization of benzoxaboroles in the treatment of Stage 2 Human African Trypanosomiasis” (Parasitology, 2013)
Where two headings read alike, the source gives them in different places.

How the values were obtained:
[1] = Binding to human plasma protein by rapid equilibrium dialysis; assay type: in vitro ADME; settings: 1 μg mL^−1
Experimental: Binding to plasma proteins, brain homogenates or proteins in serum-fortified HMI-9 media was determined by rapid equilibrium dialysis (RED) (Pierce, Rockford, IL) using a 48-well plate-based format according to the manufacturer's instructions. Briefly, test compound was added to fresh plasma (Bioreclamation, Liverpool, NY) at the required concentrations, freshly prepared brain homogenate or media. Duplicate aliquots of each sample were transferred into the sample chambers of the RED devices, and dialysis buffer (BupH PBS) was added to the buffer chambers. The plates were sealed and incubated at 37 °C for 4 h. After dialysis, samples collected from the buffer and tissue chambers were treated with ice-cold methanol (3 volumes for plasma or HMI-9 media, 4 volumes for brain) to precipitate proteins. The treated samples were centrifuged for 10 min at approximately 3000 g at 15 °C. The supernatants were assayed for test compound by LC-MSMS. Calibration standards and quality control samples were prepared in matched matrix and assayed with samples. Values for unbound and bound fractions and mass balance were calculated. Concordance of binding for each batch of plasma was confirmed by assay of warfarin, imipramine and carbamezapine. Acceptance criterion for mass balance was 70–120%.

L929 mammalian cell line = assay: L929 mammalian cell cytotoxicity / selectivity; assay type: cell-based; settings: parasite vs L929
[2] = system: MDCKII-hMDR1 monolayer (Pgp efflux transporter); assay: MDCKII-hMDR1 monolayer permeability and Pgp-mediated efflux; assay type: in vitro ADME; settings: for Mass balance A–B+GF918 / Mass balance A–B: 3 μM; for Mass balance A–B+GF918: with GF918; for Mass balance A–B: without GF918
Experimental: (§1) The propensity of test compounds to cross the BBB was examined using an in vitro MDCKII-hMDR1 monolayer assay (Polli et al. [2001]). In summary, MDCKII-hMDR1 cells (Netherlands Cancer Institute, Amsterdam, the Netherlands) were seeded at a density of 3×10^5 cells per well onto microporous polycarbonate membranes in 12 well Costar Transwell plates (Corning Inc., Lowell, MA). The cells were incubated for 3 days during which time they formed confluent monolayers. Trans-epithelial resistance (TEER) was measured for each insert to ensure the integrity of the monolayer (acceptable TEER >160 Ω cm^2). The permeability and susceptibility for Pgp-mediated efflux was evaluated by adding each compound at a concentration of 3 μM, in the presence or absence of 2 μM GF120918 (a potent Pgp inhibitor), to the apical compartment. Competency of the Pgp efflux transporter was confirmed by assay of propranolol (non-substrate) and amprenavir (substrate). Cell monolayers were incubated in triplicate with shaking (160 rpm) at 37 °C in a 5% CO2-enriched humidified atmosphere for 1 h. Samples were removed from the apical and basolateral compartments after incubation and assayed for test compound concentrations by LC-MSMS. Values for mass balance, PappA−B, PappA−B+GF918, and absorption quotient (AQ) were calculated for each compound (Troutman and Thakker, [2003]; Thiel-Demby et al. [2004]). Acceptance criterion for mass balance was 70–120%.

P-gp (human MDR1) = assay: as above; assay type: in vitro ADME; settings: dog, 3 μM
Experimental: as §1

[3] = Single oral dose pharmacokinetics and CNS penetration in male CD-1 mice; assay type: in vivo, mouse
Experimental: The CNS disposition and pharmacokinetics of the benzoxaboroles were evaluated in infected and uninfected mice following oral administration. In vivo phases of single-dose rodent PK studies were performed at Vivisource (Waltham, MA) following Institutional Animal Care and Use Committee (IACUC) review in an Association for Assessment and Accreditation of Laboratory Animal Care International (AAALAC)-approved facility. Studies in Trypanosoma brucei brucei (TREU 667 strain) infected mice, or uninfected satellite animals, were performed after IACUC review at Pace University (NewYork, NY).
Male CD-1 or female Swiss Webster mice (approximately 25 g) were administered test compounds by oral gavage either once (QD) or twice per day (Q12 h) with doses ranging between 6 and 100 mg kg^−1 as described below. All compounds were formulated as an in situ sodium salt in 2% (v/v) ethanol, 5% (m/v) dextrose, to yield typically clear colourless solutions that were administered at 4 mL kg^−1. Blood samples for pharmacokinetic studies were collected into polypropylene tubes containing K2EDTA anticoagulant and stored on wet ice until centrifuged and processed to plasma. Plasma was stored at −80 °C. Blood samples from mice were collected via cardiac puncture under terminal anaesthesia. Rodents were euthanized in a CO2 chamber before collection of terminal blood or tissue samples. Brain tissues were blotted dry and stored at approximately −80 °C.
Plasma (50 μL) was treated with 4 volumes of ice-cold methanol (containing 25 ng mL^−1 of either deuterium (d6)-labelled SCYX-7158 internal standard (SCYX-5232) for SCYX-7158 analyses or a related benzoxaborole for other compounds) to precipitate proteins. Treated samples were gently mixed on a 96-well plate shaker for approximately 10 min then centrifuged at approximately 3000 g and 15 °C for 15 min. Supernatants were transferred to fresh 96-well plates for analysis by means of LC-MSMS. Samples of tissue homogenate (50 μL), or buffer from protein binding studies, were treated similarly to plasma samples.
All biological samples were assayed by a verified LC-MSMS method employing two dimensional chromatographic separation to overcome ion suppression (Annesely, [2003]) caused by co-elution of endogenous components with benzoxaboroles. In summary, treated samples were loaded onto Phenomenex (Torrance, CA) Synergi Polar RP, 4 μ, 50×2 mm extraction columns and subsequently back-eluted onto a Phenomenex Luna C8(2) 3 μ, 50×2 mm analytical columns protected by a Phenomenex C8 guard cartridge. Mobile phases for extraction and analytical columns consisted of 5 mM ammonium formate and 0·1% (v/v) formic acid in water (A), and 5 mM ammonium formate and 0·1% (v/v) formic acid in methanol (B). […]

T. b. brucei (TREU 667) = assay: Murine model of Stage 2 (CNS) HAT; assay type: in vivo, mouse; settings: oral administration
Experimental: The efficacy of benzoxaboroles was evaluated in a murine model of Stage 2 (CNS) HAT (Nare et al. [2010]; Jacobs et al. [2011]). In summary, mice (n = 10 per group) were infected by bolus i.p. injection of 1×10^4 T. b. brucei (TREU 667) parasites. A single bolus i.p. dose (10 mg kg^-1) of berenil (Sigma-Aldrich, St. Louis, MO) was administered on day 4 as a positive treatment control for haemolymphatic-stage infection. Infection of the remaining animals proceeded for 21 days to establish a CNS infection before treatment with either a single dose of berenil (as above) or test compounds by the oral route either once or twice daily over 7 days at the doses indicated below. Animals were checked at least weekly for parasitaemia and were immediately removed from cages and euthanized upon recrudescence. Animals were considered cured if they were […] for at least 180 days after treatment.

[4] = parameters: method as in Sanderson et al. [2008]; settings: mice; ref Sanderson et al. [2008]; cited from earlier work
[5] = parameters: method as in Milford et al. [1993]; settings: human patients; ref Milford et al. [1993]; cited from earlier work
T. brucei = settings: cited from earlier work
[6] = intravenous 2·2–3·6 mg kg^−1, uninfected vervet monkeys; ref Burri et al. [1994]; cited from earlier work
[7] = human patients, 24 h after last injection of multi-day regimen; ref Burri and Keiser, [2001]; cited from earlier work
[8] = cited from earlier work
T. b. brucei = assay: Serum-shift assay (effect of foetal calf serum on trypanocidal IC50); assay type: cell-based, Trypanosoma brucei brucei; settings: 72 h, relative to 2·5% serum
Experimental: To assess the potential effects of protein binding on trypanocidal activity, parasite viability assays were performed in the presence of increasing concentrations (2·5–50%) of foetal calf serum (Invitrogen, Carlsbad, CA) in HMI-9 media. T. b. brucei parasites were conditioned to the test serum concentrations for at least one round of passage prior to assay. Test compounds were added, incubated for 72 h, signal measured and IC50 determinations were conducted as described above using the resazurin endpoint. The fold change in IC50 from minimal serum concentration to maximal serum concentration was calculated and used to compare compounds and their potential for being restrictively protein bound.

[9] = MDCK-MDR1, with GF120918 2 μM, with 2 μM GF120918, read-out: Papp, A–B direction+GF918
[10] = MDCK-MDR1, read-out: Papp, A–B direction

With `[O-][S+](c1ccc(Cl)cc1)c1ccc2c(c1)B(O)OC2` (stereo not shown) [AN2920] the Mass balance [1] was 106%, the Selectivity (L929 mammalian cell line) was “⩾49” and the P-gp classification [2] was “Non-substrate”. The “Mass balance A–B+GF918” value [2] was 99%, the “Mass balance A–B” value [2] was 94% and the Papp A→B at 1 h, 3 μM (P-gp (human MDR1); [9]) was 46.5 ×10⁻⁶ cm/s. For the same compound, the Papp A→B at 1 h, 3 μM (P-gp (human MDR1); [10]) was 43.8 ×10⁻⁶ cm/s, the “time CNS (brain) total concentration above MIC” value [3] was 1 h and the “time plasma concentration maintained above MIC” value ([3]; total concentration) was “approximately 7 h”.
For `O=C(Nc1ccc2c(c1)B(O)OC2)c1ccccc1C(F)(F)F` [AN3520], the Mass balance [1] was 110%, the Selectivity (L929 mammalian cell line) was “⩾94” and the P-gp classification [2] was “Non-substrate”. For the same compound, the “Mass balance A–B+GF918” value [2] was 90%, the “Mass balance A–B” value [2] was 92% and the Papp A→B at 1 h, 3 μM (P-gp (human MDR1); [9]) was 43.4 ×10⁻⁶ cm/s. The Papp A→B at 1 h, 3 μM (P-gp (human MDR1); [10]) was 42.4 ×10⁻⁶ cm/s.
With `O=C(Nc1ccc2c(c1)B(O)OC2)c1ccc(F)cc1C(F)(F)F` [SCYX-6759] the Mass balance [1] was 97%, the Selectivity (L929 mammalian cell line) was “⩾136” and the P-gp classification [2] was “Non-substrate”. For the same compound, the “Mass balance A–B+GF918” value [2] was 95%, the “Mass balance A–B” value [2] was 89% and the Papp A→B at 1 h, 3 μM (P-gp (human MDR1); [9]) was 38.6 ×10⁻⁶ cm/s. For the same compound, the Papp A→B at 1 h, 3 μM (P-gp (human MDR1); [10]) was 37.9 ×10⁻⁶ cm/s, the “time CNS (brain) total concentration above MIC” value [3] was “approximately 10 h” and the “cures in the CNS (Stage 2) murine model” value (T. b. brucei (TREU 667)) was 100%.
For `NCCCC(N)(C(=O)O)C(F)F` (stereo not shown) [eflornithine], the “maximum concentration (CNS exposure)” value [4] is given as 10 to 40 nM, the “CSF level at steady state” value [5] is given as 5 to 150 nM and the “in vitro MIC” value (T. brucei; ref Sanderson et al. [2008]) is given as “ca. 50 μM”.
In the case of `Nc1nc(N)nc(Nc2ccc([As]3SCC(CO)S3)cc2)n1` (stereo not shown) [melarsoprol], the “maximum concentration in CSF” value [6] is given as about 50 ng/mL, the CSF concentration [7] is given as 39 to 79 ng/mL and the “in vitro MIC” value (T. brucei; ref Burri et al. [1994]) is given as 2 to 100 ng/mL. For the same compound, the “drug-induced death, patients” value ([8]; Stage 2 HAT patients, ref Schmid et al. [2004], Doua et al. [2005], Kuepfer et al. [2012]) was 2–10% and the “failure rate with treatment” value ([8]; ref Legros et al. [1999]) was 3–30%.
In the case of `Cc1ccc(C(=O)Nc2ccc(S(=O)(=O)O)c3cc(S(=O)(=O)O)cc(S(=O)(=O)O)c23)cc1NC(=O)c1cccc(NC(=O)Nc2cccc(C(=O)Nc3cc(C(=O)Nc4ccc(S(=O)(=O)O)c5cc(S(=O)(=O)O)cc(S(=O)(=O)O)c45)ccc3C)c2)c1` [suramin], the “fold change in IC50 between 2·5 and 50% calf serum” value (T. b. brucei) was 26 fold.
